Source: ChEMBL document CHEMBL1201862, “PubChem BioAssay data set” (2004)
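Values below derive from 48-hour exposures of cells grown in 96-well plates, with endpoints linearly interpolated between the two concentrations bracketing the appropriate inhibition level. GI50 is the concentration that inhibits growth by half.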 Active and inactive are the calls of the source. Cut-off read from the data, not from the text of the source: active = GI50 up to about 1.1 µM and inactive = higher.

Assays:
Assay in all cases: growth of human tumour cells (NCI), 48 h
786-0 = tested on: 786-0
A549 = tested on: A549
CCRF-CEM = tested on: CCRF-CEM
DU-145 = tested on: DU-145
HL-60 = tested on: HL-60
HOP-92 = tested on: HOP-92
M14 = tested on: M14
MDA-MB-435 = tested on: MDA-MB-435
MOLT-4 = tested on: MOLT-4
NCI-H226 = tested on: NCI-H226
OVCAR-4 = tested on: OVCAR-4
OVCAR-5 = tested on: OVCAR-5
OVCAR-8 = tested on: OVCAR-8
SF-295 = tested on: SF-295
SF-539 = tested on: SF-539
SNB-75 = tested on: SNB-75
SW-620 = tested on: SW-620
TK-10 = tested on: TK-10
NCI-H522 = tested on: NCI-H522
A498 = tested on: A498

SMILES | GI50 (786-0) | GI50 (A549) | GI50 (CCRF-CEM) | GI50 (DU-145) | GI50 (HL-60) | GI50 (HOP-92) | GI50 (M14) | GI50 (MDA-MB-435) | GI50 (MOLT-4) | GI50 (NCI-H226) | GI50 (OVCAR-4) | GI50 (OVCAR-5) | GI50 (OVCAR-8) | GI50 (SF-295) | GI50 (SF-539) | GI50 (SNB-75) | GI50 (SW-620) | GI50 (TK-10) | GI50 (NCI-H522) | GI50 (A498)
CC(C)CC(NC(=O)C(O)C(N)Cc1ccccc1)C(=O)O (configuration not stated) | > 100 µM (inactive) | > 100 µM (inactive) | > 100 µM (inactive) | > 100 µM (inactive) | > 100 µM (inactive) | > 100 µM (inactive) | > 100 µM (inactive) | > 100 µM (inactive) | > 100 µM (inactive) | > 100 µM (inactive) | > 100 µM (inactive) | > 100 µM (inactive) | > 100 µM (inactive) | > 100 µM (inactive) | > 100 µM (inactive) | > 100 µM (inactive) | > 100 µM (inactive) | > 100 µM (inactive) |  | 
O=C(O)c1nn(-c2ccccc2)nc1-c1nn(-c2ccccc2)nc1C(=O)O | > 100 µM (inactive) | > 100 µM (inactive) | > 100 µM (inactive) | > 100 µM (inactive) | > 100 µM (inactive) | > 100 µM (inactive) | > 100 µM (inactive) | > 100 µM (inactive) | > 100 µM (inactive) | > 100 µM (inactive) | > 100 µM (inactive) | > 100 µM (inactive) | > 100 µM (inactive) | > 100 µM (inactive) | > 100 µM (inactive) |  | > 100 µM (inactive) | > 100 µM (inactive) |  | 
CCOC(=O)CC(c1ccccc1)C(C)(C(=O)OCC)C(=O)OCC (configuration not stated) | > 100 µM (inactive) | > 100 µM (inactive) | > 100 µM (inactive) | > 100 µM (inactive) | > 100 µM (inactive) |  | > 100 µM (inactive) |  | 76.9 µM (inactive) | > 100 µM (inactive) | > 100 µM (inactive) | > 100 µM (inactive) | > 100 µM (inactive) | > 100 µM (inactive) | > 100 µM (inactive) | 87.3 µM (inactive) | > 100 µM (inactive) | > 100 µM (inactive) | > 100 µM (inactive) | 
C/C(CC1C2CCCC1C2)=N\NC(N)=O (configuration not stated) | > 100 µM (inactive) | > 100 µM (inactive) | > 100 µM (inactive) | > 100 µM (inactive) | > 100 µM (inactive) | > 100 µM (inactive) | > 100 µM (inactive) | > 100 µM (inactive) | > 100 µM (inactive) | > 100 µM (inactive) | > 100 µM (inactive) | > 100 µM (inactive) | > 100 µM (inactive) | > 100 µM (inactive) | > 100 µM (inactive) | > 100 µM (inactive) | > 100 µM (inactive) | > 100 µM (inactive) | > 100 µM (inactive) | 
CCC(=O)ONC(=O)Cn1ccc([N+](=O)[O-])n1 | > 100 µM (inactive) | > 100 µM (inactive) | > 100 µM (inactive) | > 100 µM (inactive) | > 100 µM (inactive) | > 100 µM (inactive) | > 100 µM (inactive) | > 100 µM (inactive) | > 100 µM (inactive) | > 100 µM (inactive) |  | > 100 µM (inactive) | > 100 µM (inactive) | > 100 µM (inactive) | > 100 µM (inactive) | > 100 µM (inactive) | > 100 µM (inactive) | > 100 µM (inactive) | > 100 µM (inactive) | 
CC1CN=C(N(C(=O)Nc2ccc(Cl)c(Cl)c2)c2ccccc2)S1 (configuration not stated) | 43.4 µM (inactive) | 53.7 µM (inactive) | 31.9 µM (inactive) | 91.8 µM (inactive) | > 10 µM (inactive) | 38.9 µM (inactive) | 35.3 µM (inactive) |  | > 100 µM (inactive) |  | 41.4 µM (inactive) | > 100 µM (inactive) | 87.1 µM (inactive) | 75.7 µM (inactive) | 39.4 µM (inactive) | 56.2 µM (inactive) | 72.1 µM (inactive) | 38.9 µM (inactive) |  | > 100 µM (inactive)
CC(=O)NC(C)(C)C1CC=C(C)CC1 (configuration not stated) | > 100 µM (inactive) | > 100 µM (inactive) | > 100 µM (inactive) | > 100 µM (inactive) | > 100 µM (inactive) |  | > 100 µM (inactive) | > 100 µM (inactive) | > 100 µM (inactive) | > 100 µM (inactive) | > 100 µM (inactive) | > 100 µM (inactive) | > 100 µM (inactive) | > 100 µM (inactive) | > 100 µM (inactive) | > 100 µM (inactive) | > 100 µM (inactive) | > 100 µM (inactive) |  | > 100 µM (inactive)
Fc1ccccc1C1SCc2nc3cc4ccccc4cc3n21 (configuration not stated) | 20.5 µM (inactive) | 64.9 µM (inactive) | > 100 µM (inactive) | 60.8 µM (inactive) | 13.2 µM (inactive) |  | > 100 µM (inactive) | > 100 µM (inactive) | > 100 µM (inactive) | 75.5 µM (inactive) | 35.1 µM (inactive) | > 100 µM (inactive) | 36.6 µM (inactive) | 34.4 µM (inactive) |  | 31.7 µM (inactive) | 85.7 µM (inactive) | 63.8 µM (inactive) | 18.7 µM (inactive) | 
Cn1nc(C(=O)N2CC(CCl)c3c2cc(N)c2ccccc32)cc1NC(=O)Nc1cc(C(=O)N2CC(CCl)c3c2cc(N)c2ccccc32)nn1C (configuration not stated) | 0.0547 µM (active) | 0.499 µM (active) | < 0.01 µM (active) | 0.0116 µM (active) |  |  | 0.349 µM (active) | 0.219 µM (active) | < 0.01 µM (active) |  | 0.449 µM (active) | 0.301 µM (active) | 0.249 µM (active) | 1.55 µM (inactive) | 0.016 µM (active) | 0.0185 µM (active) | 0.0271 µM (active) | > 100 µM (inactive) |  | 8.69 µM (inactive)
[N-]=[N+]=NCc1nc(N)c2c3c(sc2n1)CCCC3 | 0.455 µM (active) | 3.27 µM (inactive) |  | 3.13 µM (inactive) |  | 0.402 µM (active) | 3.46 µM (inactive) | 4.25 µM (inactive) | 3.29 µM (inactive) | 2.14 µM (inactive) | 0.631 µM (active) | 3.64 µM (inactive) | 1.51 µM (inactive) | 7.38 µM (inactive) | 1.6 µM (inactive) | 7.69 µM (inactive) | 6.85 µM (inactive) | 12.4 µM (inactive) |  | 10.9 µM (inactive)
COC(=O)Cc1cc(O)c(C/C=C(\C)CC/C=C(\C)C(O)C(=O)C=C(C)C)cc1O (configuration not stated) | 38.6 µM (inactive) | 25.6 µM (inactive) | 2.93 µM (inactive) | 45.4 µM (inactive) | 2.76 µM (inactive) | 20.4 µM (inactive) | 26.3 µM (inactive) | 20.6 µM (inactive) | 14.5 µM (inactive) | 26.3 µM (inactive) | 40.4 µM (inactive) | 33.7 µM (inactive) | 23.2 µM (inactive) | 24.2 µM (inactive) | 20.3 µM (inactive) | 18.2 µM (inactive) | 31.3 µM (inactive) |  | 21.1 µM (inactive) | 
